Reference: US20100204141A1, “USE OF BPP-B AS A THERAPEUTIC AGENT” (priority 2007, published 2010)
Square brackets hold non-standard residues; d marks the D form. Peptide text beside a SMILES is read from it. pGlu = O=C1CC[C@@H](C(=O)O)N1

Test system: drug-resistant Mycobacterium tuberculosis
Conditions: 5 micrograms per ml

## CC[C@H](C)[C@H](NC(=O)[C@H](CCCCN)NC(=O)[C@@H]1CCCN1C(=O)[C@H](CCCNC(=N)N)NC(=O)[C@@H]1CCCN1C(=O)[C@@H]1CCCN1C(=O)[C@H](CC(C)C)NC(=O)CNC(=O)[C@@H]1CCC(=O)N1)C(=O)N1CCC[C@H]1C(=O)N1CCC[C@H]1C(=O)O [Bradykinin potentiator B, Pyr-Gly-Leu-Pro-Pro-Arg-Pro-Lys-Ile-Pro-Pro-OH] ([pGlu]GLPPRPKIPP-OH)
  % inhibition: 0.0%
